{"source": "patent US9072759B2", "about": "(priority 2008, dated 2015)", "key": {"[1]": {"tested_on": "L. pneumophila strain ATCC 33153", "experiment": "microbe, parasite or virus in culture", "type": "cell-based", "settings": "Legionella pneumophila"}, "[2]": {"tested_on": "L. monocytogenes strain EGD", "experiment": "microbe, parasite or virus in culture", "type": "cell-based", "settings": "Listeria monocytogenes"}, "in vivo [3]": {"experiment": "in vivo", "settings": "rodents and non human primates"}, "F. tularensis": {"tested_on": "F. tularensis", "experiment": "microbe, parasite or virus in culture", "type": "cell-based"}, "B. anthracis [4]": {"tested_on": "B. anthracis", "experiment": "microbe, parasite or virus in culture", "type": "cell-based"}, "in vivo [5]": {"experiment": "in vivo", "settings": "rat"}, "B. mallei": {"tested_on": "B. mallei", "experiment": "microbe, parasite or virus in culture", "type": "cell-based"}, "B. pseudomallei": {"tested_on": "B. pseudomallei", "experiment": "microbe, parasite or virus in culture", "type": "cell-based"}, "in vivo [6]": {"experiment": "in vivo", "settings": "monkey"}, "Y. pestis": {"tested_on": "Y. pestis", "experiment": "microbe, parasite or virus in culture", "type": "cell-based"}, "clinical": {"experiment": "clinical", "settings": "in vivo"}, "[7]": {"settings": "in vivo"}, "B. anthracis [8]": {"tested_on": "B. anthracis", "settings": "approved or proposed for post-exposure anthrax indications; cited from earlier work"}, "[9]": {"settings": "ATCC33153, pH 6.5, read-out: MIC, L. pneumophila, pH-adjusted broth"}, "[10]": {"settings": "ATCC33153, pH 7.4, read-out: MIC, L. pneumophila, pH-adjusted broth"}, "[11]": {"settings": "ATCC33153, read-out: MIC, L. pneumophila"}, "[12]": {"settings": "read-out: MIC, L. monocytogenes"}}, "note": "Like-named read-outs stand apart in the source and are kept apart here.", "data": [{"smiles": "CC[C@H]1OC(=O)[C@H](C)[C@@H](O[C@H]2C[C@@](C)(OC)[C@@H](O)[C@H](C)O2)[C@H](C)[C@@H](O[C@@H]2O[C@H](C)C[C@H](N(C)C)[C@H]2O)[C@](C)(O)C[C@@H](C)CN(C)[C@H](C)[C@@H](O)[C@]1(C)O", "note": "[AZI, Azithromycin]", "values": [{"measurement": "MIC", "setting": "[1]; ATCC33153", "value": 0.016, "unit": "µg/mL"}, {"measurement": "MIC", "setting": "[1]; [9]", "value": 0.25, "unit": "µg/mL"}, {"measurement": "MIC", "setting": "[1]; [10]", "value": "~0.01", "unit": "µg/mL"}, {"measurement": "MIC", "setting": "[1]; [11]", "value": 0.016, "unit": "µg/mL"}, {"measurement": "MIC", "setting": "[2]", "value": 1, "unit": "µg/mL"}, {"measurement": "MIC", "setting": "[2]; [12]", "value": 1, "unit": "µg/mL"}]}, {"smiles": "CC[C@H]1OC(=O)[C@@](C)(F)C(=O)[C@H](C)[C@@H](OC2OC(C)CC(N(C)C)C2O)[C@@](C)(OC)C[C@@H](C)C(=O)[C@H](C)[C@H]2N(CCCCn3cc(-c4cccc(N)c4)nn3)C(=O)O[C@]12C", "note": "(some centres unmarked) [CEM-101, 11-N-4-(3-aminophenyl)-[1,2,3]triazol-1-yl]-butyl}-5-desosaminyl-3-oxo-2-fluoro-erythronolide A,-11,12-cyclic carbamate]", "values": [{"measurement": "Kp", "setting": "in vivo [3]", "value": "17 to 100"}, {"measurement": "MIC Range", "setting": "F. tularensis; F. tularensis, 30 strains", "value": "<0.08 to 4", "unit": "µg/mL"}, {"measurement": "MIC50", "setting": "F. tularensis; Francisella tularensis", "value": 0.03, "unit": "µg/mL"}, {"measurement": "MIC90", "setting": "F. tularensis; Francisella tularensis", "value": 2, "unit": "µg/mL"}, {"measurement": "MIC Range", "setting": "B. anthracis [4]; B. anthracis, 30 strains", "value": "<0.008 to 0.015", "unit": "µg/mL"}, {"measurement": "MIC50", "setting": "B. anthracis [4]; Bacillus anthracis", "value": "< 0.008", "unit": "µg/mL"}, {"measurement": "MIC90", "setting": "B. anthracis [4]; Bacillus anthracis", "value": "< 0.008", "unit": "µg/mL"}, {"measurement": "Kp", "setting": "in vivo [5]", "value": 5}, {"measurement": "MIC Range", "setting": "B. mallei; B. mallei, 30 strains", "value": "0.25 to 2", "unit": "µg/mL"}, {"measurement": "MIC50", "setting": "B. mallei; Burkholderia mallei", "value": 1, "unit": "µg/mL"}, {"measurement": "MIC90", "setting": "B. mallei; Burkholderia mallei", "value": 1, "unit": "µg/mL"}, {"measurement": "MIC Range", "setting": "B. pseudomallei; B. pseudomallei, 30 strains", "value": 16, "unit": "µg/mL"}, {"measurement": "MIC50", "setting": "B. pseudomallei; Burkholderia pseudomallei", "value": 16, "unit": "µg/mL"}, {"measurement": "MIC90", "setting": "B. pseudomallei; Burkholderia pseudomallei", "value": 16, "unit": "µg/mL"}, {"measurement": "Kp", "setting": "in vivo [6]", "value": 54}, {"measurement": "MIC", "setting": "[1]; ATCC33153", "value": 0.004, "unit": "µg/mL"}, {"measurement": "MIC", "setting": "[1]; [9]", "value": 0.01, "unit": "µg/mL"}, {"measurement": "MIC", "setting": "[1]; [10]", "value": 0.005, "unit": "µg/mL"}, {"measurement": "MIC", "setting": "[1]; [11]", "value": 0.004, "unit": "µg/mL"}, {"measurement": "MIC Range", "setting": "Y. pestis; Y. pestis, 30 strains", "value": "0.25 to 2", "unit": "µg/mL"}, {"measurement": "MIC50", "setting": "Y. pestis; Yersinia pestis", "value": 1, "unit": "µg/mL"}, {"measurement": "MIC90", "setting": "Y. pestis; Yersinia pestis", "value": 2, "unit": "µg/mL"}, {"measurement": "AUC", "setting": "clinical", "value": "40 to 28600", "unit": "ng·h/mL"}, {"measurement": "Cmax", "setting": "clinical", "value": "22 to 1960", "unit": "ng/mL"}, {"measurement": "Tmax", "setting": "clinical", "value": "1.5 to 6", "unit": "h"}, {"measurement": "half-life", "setting": "clinical", "value": "2.2 to 7.9", "unit": "h"}, {"measurement": "MIC", "setting": "[2]", "value": 0.004, "unit": "µg/mL"}, {"measurement": "MIC", "setting": "[2]; pH 7.4, read-out: MIC, L. monocytogenes (EDG), pH-adjusted broth", "value": 0.0039, "unit": "µg/mL"}, {"measurement": "MIC", "setting": "[2]; [12]", "value": 0.004, "unit": "µg/mL"}]}, {"smiles": "CC[C@H]1OC(=O)[C@H](C)[C@@H](O[C@H]2C[C@@](C)(OC)[C@@H](O)[C@H](C)O2)[C@H](C)[C@@H](O[C@@H]2O[C@H](C)C[C@H](N(C)C)[C@H]2O)[C@](C)(OC)C[C@@H](C)C(=O)[C@H](C)[C@@H](O)[C@]1(C)O", "note": "[CLR, Clarithromycin]", "values": [{"measurement": "bioload when the time after the last dose was extended", "setting": "[7]", "value": "bioload increases"}, {"measurement": "MIC", "setting": "[1]; ATCC33153", "value": 0.007, "unit": "µg/mL"}]}, {"smiles": "CC[C@H]1OC(=O)[C@H](C)C(=O)[C@H](C)[C@@H](O[C@@H]2O[C@H](C)C[C@H](N(C)C)[C@H]2O)[C@](C)(OC)C[C@@H](C)C(=O)[C@H](C)[C@H]2N(CCCCn3cnc(-c4cccnc4)c3)C(=O)O[C@]12C", "note": "[TEL, Telithromycin]", "values": [{"measurement": "bioload when the time after the last dose was extended", "setting": "[7]", "value": "bioload increases"}, {"measurement": "MIC", "setting": "[1]; ATCC33153", "value": 0.007, "unit": "µg/mL"}]}, {"smiles": "CC[C@H]1OC(=O)[C@H](C)C(=O)[C@H](C)[C@@H](O[C@@H]2O[C@H](C)C[C@H](N(C)C)[C@H]2O)[C@](C)(OC/C=C/c2cnc3ccccc3c2)C[C@@H](C)C(=O)[C@H](C)[C@H]2NC(=O)O[C@@]21C", "note": "[cethromycin]", "values": [{"measurement": "MIC90 against B. anthracis, comparator antibiotics", "setting": "B. anthracis [8]", "value": 0.063, "unit": "µg/mL"}]}, {"smiles": "O=C(O)c1cn(C2CC2)c2cc(N3CCNCC3)c(F)cc2c1=O", "note": "[ciprofloxacin]", "values": [{"measurement": "MIC90 against B. anthracis, comparator antibiotics", "setting": "B. anthracis [8]", "value": 0.031, "unit": "µg/mL"}]}]}
